Experimental findings from patent publication US10316028B2, “Orexin receptor antagonists” (Heptares Therapeutics Limited, priority 2012, dated 2019) are described below.

The experiment deals with T1, human Orexin-2 receptor (Homo sapiens, UniProt O43614).
T1 construct: expressed in transfected cells; host or cells: HEK293 cells (transient transfection, Genejuice); membranes
T1 sequence (O43614 1-444): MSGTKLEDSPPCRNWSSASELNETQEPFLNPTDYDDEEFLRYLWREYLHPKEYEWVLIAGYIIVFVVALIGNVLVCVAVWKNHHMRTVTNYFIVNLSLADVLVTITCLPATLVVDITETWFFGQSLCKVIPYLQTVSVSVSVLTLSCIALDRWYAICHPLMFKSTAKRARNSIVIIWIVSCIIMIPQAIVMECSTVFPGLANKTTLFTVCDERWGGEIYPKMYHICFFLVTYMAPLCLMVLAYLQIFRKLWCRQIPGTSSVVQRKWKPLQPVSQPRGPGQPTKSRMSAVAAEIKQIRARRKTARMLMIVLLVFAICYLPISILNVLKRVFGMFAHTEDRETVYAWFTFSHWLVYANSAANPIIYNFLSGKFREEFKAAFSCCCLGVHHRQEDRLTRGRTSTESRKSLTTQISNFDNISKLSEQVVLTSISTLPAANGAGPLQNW
The experiment can be described thus: 3H-EMPA radioligand binding assay. The conditions noted are these: 3H-EMPA displacement, membranes of HEK293 cells transfected with human Orexin-2 receptor; KI by Cheng-Prussoff; read-out: OX2 pKi ave (converted). In a few lines:
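Membranes from HEK293 cells transiently transfected with human orexin-2 receptor cDNA, assayed with [3H]EMPA. Bound ligand collected on PEI-treated GF/B filters and counted by scintillation; IC50 from inhibition curves, Ki by Cheng-Prusoff.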
For `Cc1cc(CN2C(=O)N(Cc3c(F)cccc3Cl)c3ccccc3S2(=O)=O)n(C)n1` [Example 127, 4-(2-Chloro-6-fluorobenzyl)-2-[(1,3-dimethyl-1H-pyrazol-5-yl)methyl]-2H-1,2,4-benzothiadiazin-3(4H)-one 1,1-dioxide], the Ki is 58.9 nM.

For `COc1ccc(N2C(=O)N(Cc3ncc(F)cc3F)c3ncccc3S2(=O)=O)cc1OC` [Example 96, 4-[(3,5-Difluoropyridin-2-yl)methyl]-2-(3,4-dimethoxyphenyl)-2H-pyrido[2,3-e][1,2,4]thiadiazin-3(4H)-one 1,1-dioxide], the Ki is 13.2 nM.

Consider `COc1cccc(N2C(=O)N(Cc3ccccc3F)c3ccccc3S2(=O)=O)c1` [Example 14, 4-(2-fluorobenzyl)-2-(3-methoxyphenyl)-2H-1,2,4-benzothiadiazin-3(4H)-one 1,1-dioxide], for which the Ki is 200 nM.

With `COc1ccc(N2C(=O)N(Cc3cccc(Cl)c3F)c3ccccc3S2(=O)=O)cc1OC` [Example 71, 4-(3-Chloro-2-fluorobenzyl)-2-(3,4-dimethoxyphenyl)-2H-1,2,4-benzothiadiazin-3(4H)-one 1,1-dioxide], the Ki is 7.08 nM.

With `Cc1ccc(N2C(=O)N(Cc3ccccc3Cl)c3ccccc3S2(=O)=O)cc1C` [Example 59, 4-(2-chlorobenzyl)-2-(3,4-dimethylphenyl)-2H-1,2,4-benzothiadiazin-3(4H)-one 1,1-dioxide], the Ki is 43.7 nM.

Turning to `CNc1ncc(N2C(=O)N(Cc3c(F)cc(OC)cc3F)c3ncccc3S2(=O)=O)cc1C` [Example 184, 4-(2,6-Difluoro-4-methoxybenzyl)-2-[5-methyl-6-(methylamino)pyridin-3-yl]-2H-pyrido[2,3-e][1,2,4]thiadiazin-3(4H)-one 1,1-dioxide], the Ki is 8.51 nM.

On to `CSc1cccc(N2C(=O)N(Cc3cccc(Br)c3)c3ccccc3S2(=O)=O)c1` [Example 9, 4-(3-bromobenzyl)-2-[3-(methylsulfanyl)phenyl]-2H-1,2,4-benzothiadiazin-3(4H)-one 1,1-dioxide], for which the Ki is 35.5 nM.

As to `Cc1ccc(N2C(=O)N(Cc3cccc(F)c3)c3ccccc3S2(=O)=O)cc1Cl` [Example 12, 4-(3-fluorobenzyl)-2-(3-chloro-4-methylphenyl)-2H-1,2,4-benzothiadiazin-3(4H)-one 1,1-dioxide], the Ki is 34.7 nM.

As to `COc1cccc(N2C(=O)N(Cc3c(F)cccc3Cl)c3ccccc3S2(=O)=O)c1` [Example 36, 4-(2-chloro-6-fluorobenzyl)-2-(3-methoxyphenyl)-2H-1,2,4-benzothiadiazin-3(4H)-one 1,1-dioxide], the Ki was 15.8 nM.

Regarding `COc1cc(F)c(CN2C(=O)N(c3ccc(C)c(C)n3)S(=O)(=O)c3cccnc32)c(F)c1` [Example 173, 4-(2,6-Difluoro-4-methoxybenzyl)-2-(5,6-dimethylpyridin-2-yl)-2H-pyrido[2,3-e][1,2,4]thiadiazin-3(4H)-one 1,1-dioxide], the Ki was 2.4 nM.

In the case of `COc1cc(F)c(CN2C(=O)N(c3cnc(OC)c(OC)c3)S(=O)(=O)c3cccnc32)c(F)c1` [Example 165, 4-(2,6-Difluoro-4-methoxybenzyl)-2-(5,6-dimethoxypyridin-3-yl)-2H-pyrido[2,3-e][1,2,4]thiadiazin-3(4H)-one 1,1-dioxide], the Ki is 0.676 nM.

`CCc1cccc(N2C(=O)N(Cc3c(F)cccc3Cl)c3ccccc3S2(=O)=O)c1` [Example 47, 4-(2-chloro-6-fluorobenzyl)-2-(3-ethylphenyl)-2H-1,2,4-benzothiadiazin-3(4H)-one 1,1-dioxide]: the Ki is 2.51 nM.

As to `COc1ncc(N2C(=O)N(Cc3c(F)cccc3Cl)c3ccccc3S2(=O)=O)cn1` [Example 137, 4-(2-Chloro-6-fluorobenzyl)-2-(2-methoxypyrimidin-5-yl)-2H-1,2,4-benzothiadiazin-3(4H)-one 1,1-dioxide], the Ki is 38 nM.

Take `COc1ccc(N2C(=O)N(Cc3c(F)cc(F)cc3Cl)c3ccccc3S2(=O)=O)cc1OC` [Example 107, 4-(2-Chloro-4,6-difluorobenzyl)-2-(3,4-dimethoxyphenyl)-2H-1,2,4-benzothiadiazin-3(4H)-one 1,1-dioxide]: the Ki was 1.05 nM.

For the compound `COc1ccc(N2C(=O)N(Cc3ncc(C)cc3C)c3ccccc3S2(=O)=O)cc1OC` [Example 86, 4-[(3,5-Dimethylpyridin-2-yl)methyl]-2-(3,4-dimethoxyphenyl)-2H-1,2,4-benzothiadiazin-3(4H)-one 1,1-dioxide], the Ki was 74.1 nM.

In the case of `CSc1cccc(N2C(=O)N(CC3CCCCC3)c3ccccc3S2(=O)=O)c1` [Example 62, 4-(Cyclohexylmethyl)-2-[3-(methylsulfanyl)phenyl]-2H-1,2,4-benzothiadiazin-3(4H)-one 1,1-dioxide], the Ki is 871 nM.

As for `COc1ccc(N2C(=O)N(Cc3c(F)cccc3Cl)c3ccccc3S2(=O)=O)cc1OC` [Example 20, 4-(2-chloro-6-fluorobenzyl)-2-(3,4-dimethoxyphenyl)-2H-1,2,4-benzothiadiazin-3(4H)-one 1,1-dioxide], the Ki is 0.741 nM.

`CSc1cccc(N2C(=O)N(Cc3c(F)cccc3Cl)c3ccccc3S2(=O)=O)c1` [Example 49, 4-(2-chloro-6-fluorobenzyl)-2-[3-(methylsulfanyl)phenyl]-2H-1,2,4-benzothiadiazin-3(4H)-one 1,1-dioxide]: the Ki is 1.05 nM.

As for `O=C1N(Cc2c(F)cccc2Cl)c2ccccc2S(=O)(=O)N1c1cccc(Cl)c1` [Example 42, 4-(2-chloro-6-fluorobenzyl)-2-(3-chlorophenyl)-2H-1,2,4-benzothiadiazin-3(4H)-one 1,1-dioxide], the Ki is 14.1 nM.

Take `CCn1cc(N2C(=O)N(Cc3c(F)cccc3Cl)c3ccccc3S2(=O)=O)cn1` [Example 150, 4-(2-Chloro-6-fluorobenzyl)-2-(1-ethyl-1H-pyrazol-4-yl)-2H-1,2,4-benzothiadiazin-3(4H)-one 1,1-dioxide]: the Ki was 17.4 nM.

On to `COc1cc(F)c(CN2C(=O)N(c3cnc(OC)c(OC)c3)S(=O)(=O)c3ccccc32)c(F)c1` [Example 146, 4-(2,6-difluoro-4-methoxybenzyl)-2-(5,6-Dimethoxypyridin-3-yl)-2H-1,2,4-benzothiadiazin-3(4H)-one 1,1-dioxide], for which the Ki was 0.363 nM.

Take `COc1ccc(N2C(=O)N(Cc3ccccc3F)c3ccccc3S2(=O)=O)cc1OC` [Example 67, 2-(3,4-Dimethoxyphenyl)-4-(2-fluorobenzyl)-2H-1,2,4-benzothiadiazin-3(4H)-one 1,1-dioxide]: the Ki is 7.08 nM.

As to `Cc1ccc(N2C(=O)N(Cc3ccccc3C)c3ccccc3S2(=O)=O)cc1Cl` [Example 54, 4-(2-methylbenzyl)-2-(3-chloro-4-methylphenyl)-2H-1,2,4-benzothiadiazin-3(4H)-one 1,1-dioxide], the Ki was 43.7 nM.

As to `COc1ccc(N2C(=O)N(Cc3c(F)cc(F)cc3Cl)c3ccccc3S2(=O)=O)nc1OC` [Example 161, 4-(2-Chloro-4,6-difluorobenzyl)-2-(5,6-dimethoxypyridin-2-yl)-2H-1,2,4-benzothiadiazin-3(4H)-one 1,1-dioxide], the Ki is 1.26 nM.

On to `COc1cnc(N2C(=O)N(Cc3c(F)cc(F)cc3F)c3ccccc3S2(=O)=O)nc1OC` [Example 170, 2-(4,5-dimethoxypyrimidin-2-yl)-4-(2,4,6-trifluorobenzyl)-2H-1,2,4-benzothiadiazin-3(4H)-one 1,1-dioxide], for which the Ki is 7.24 nM.
